Results from paper PMC10302582, “Unveiling the Potential of BenzylethyleneAryl–Urea Scaffolds for the Design of New Onco Immunomodulating Agents” (Pharmaceuticals, 2023).

Assays:
[1] = tested on: CD80; experiment: CD80 detection on membrane of co-cultured THP-1; assay type: cell-based, human; conditions: 1:5 HT-29/THP-1; 24 h; relative to non-treated co-cultured THP-1
Excerpt: Reducing the expression of CD11b has become a promising target for immune modulation in anticancer therapies. For that reason, we decided to study the effect of our compounds on CD11b in THP-1 cells co-cultured with HT-29. We also determined the relative amount of CD80, a common surface marker for monocytes.
The results are related to non-treated THP-1 cells when they were co-cultured with HT-29.
The action of the compounds on CDs in co-cultured THP-1 immune cells with cancer cell line HT-29 was tested by treating them with the compounds for 24 h/48 h (see Section 4.2.5). Surface CD11b and CD80 was determined by collecting THP-1 with trypsin, fixing with formaldehyde and staining with FITC Mouse monoclonal Anti-Human CD80 (Sigma-Aldrich SAB4700142) and Alexa Fluor® 647 Rabbit monoclonal Anti-CD11b (Merck #MABF366, Rahway, NJ, USA).

[2] = target: T1, PD-L1 (Homo sapiens, UniProt Q9NZQ7); experiment: PD-L1 relative quantification by flow cytometry in HT-29 cells; assay type: cell-based; conditions: for inhibition rate of PD-L1: HT-29, total PD-L1, dose not stated; for total PD-L1 (%) expression: HT-29 cells, 24 h, relative to DMSO control = 100
T1 construct: assess the effect of our new ureas on these two proteins only on the HT-29 cancer cell line through the use of flow cytometry; endogenous in cells; host or cells: HT-29
T1 sequence (Q9NZQ7 19-290): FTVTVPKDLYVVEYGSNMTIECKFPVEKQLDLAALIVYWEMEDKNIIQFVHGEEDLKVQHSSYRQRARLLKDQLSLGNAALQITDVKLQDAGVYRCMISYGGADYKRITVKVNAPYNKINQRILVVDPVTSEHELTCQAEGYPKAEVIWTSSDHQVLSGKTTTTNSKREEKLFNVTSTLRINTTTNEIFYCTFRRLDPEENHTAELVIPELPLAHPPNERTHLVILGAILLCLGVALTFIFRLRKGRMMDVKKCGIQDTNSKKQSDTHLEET
Procedure: The cells were incubated for a period of time of one day with doses of each of the selected compounds at two different doses: 20 and 100 µM concentrations.
The effects of the compounds on the target in the cancer cell lines compounds were tested using 20 and 100 µM doses. For that, 10^5 cells per well were seeded on a 12-well plate for 24 h with the corresponding dose of the tested compound in a total volume of 500 μL of cell media. To determine the total PD-L1 and VEGFR-2, the cells were collected and fixed with 4% in a PBS of formaldehyde. After this, a treatment with 0.5% in PBS Triton^TM X-100 permeabilized the membranes. Finally, the cells were treated with FITC Mouse monoclonal Anti-Human VEGFR-2 (ab184903) and Alexa Fluor® 647 Rabbit monoclonal Anti-PD-L1 (ab215251).
To determine surface PD-L1 and VEGFR-2, the assay used was similar to the above but avoided the permeabilization step (Triton^TM X-100).

[3] = tested on: Jurkat T-cells; experiment: MTT cell proliferation assay, Jurkat T-cells; assay type: cell-based; conditions: Homo sapiens, Jurkat, 48 h treatment
Procedure: The action on cell proliferation caused by our developed compounds was studied using an MTT assay using the human tumor cell lines of HT-29 (colon adenocarcinoma) and A-549 (pulmonary adenocarcinoma), as well as toward the non-tumor cell line HEK-293 (human embryonic kidney cells), Jurkat T-cells and human microvessel endothelial cells (HMEC-1).
In general, 5 × 10^3 (HT-29, A549, HMEC-1, Jurkat and HEK-293) cells per well were seeded in 96-well plates with 1:1 dilutions of the compounds in a volume of 100 μL of the cell media. The 3-(4,5-dimethylthiazol-2-yl)-2,5-diphenyltetrazolium bromide (MTT; Sigma Chemical Co.) dye exclusion assay was performed, and after 48 h (37 °C, 5% CO2 in a humid atmosphere), 10 μL of MTT (5 mg/mL in phosphate-buffered saline, PBS) was added to each well and incubated for 3 h at 37 °C. After the supernatant was discarded, we solved the formazan crystal in 100 µL of DMSO. The absorbance was then registered at 550 nm using a plate lector. For all concentrations of any compound, cell viability was expressed as the percentage of the ratio between the mean absorbance of the treated cells and the mean absorbance of the untreated cells. Three to five experiments were performed to establish the IC50 values (i.e., concentration half inhibiting cell proliferation, we used GraphPad Prism 7 software).

[4] = tested on: HMEC-1 endothelial cells; experiment: Microvessel formation inhibition assay on Matrigel; assay type: cell-based, human; conditions: HMEC-1 on Matrigel
Procedure: The antiangiogenic action of the selected compounds, as well as the reference compounds, was evaluated by determining the effect on the formation of new microvessels formed by HMEC-1 endothelial cells on a Matrigel matrix.
We used IBIDI μ-slide angiogenesis plates (IBIDI, Martins ried, Germany). The wells were coated with 15 μL of Matrigel® (10 mg/mL, BD Biosciences, San Jose, CA, USA) at 4 °C and incubated at 37 °C for at least 30 min. Afterward, the HMEC-1 cells were seeded at 2 × 10^4 cells/well in 25 μL of medium and were left for 30 min at 37 °C while they attached. Then, the compounds were added in serial doses in 25 μL of the medium, and after several hours (maximum 24 h) of incubation at 37 °C, pictures for the wells were taken to evaluate the formation of microvessels.

[5] = tested on: THP-1 cells co-cultured with HT-29; experiment: Immune cell proliferation in co-cultures of HT-29/THP-1; assay type: cell-based, human; conditions: 100 μM
Procedure: We also determined the effect of the selected compounds on the human monocyte cells THP-1 in the described co-cultures (see Table 6).
To determine the action of the compounds on cancer cell proliferation in co-culture with immune cells, 10^5 or 2 × 10^5 of the HT-29 cells line were seeded in each well of 12-well plates and left at 37 °C for 24 h. Then, the cancer cells were treated with IFN-γ (10 ng/mL; human, Invitrogen®, Waltham, MA, USA) containing 5 × 10^5 or 10^5, respectively, of THP-1 cells per well and the corresponding compound at 100 μM or DMSO for the positive control. After 24 h/48 h of incubation, the supernatants were collected to establish the alive THP-1 cells using FSC and SCC flow cytometry. In addition, cancer cells were collected with trypsin, fixed with 4% in PBS paraformaldehyde and counted using flow cytometry.

Row | SMILES | % CD80 expression in membrane of THP-1 [1] [%] | inhibition rate of PD-L1 [2] | total PD-L1 (%) expression ([2]; 20 μM) [%] | total PD-L1 (%) expression ([2]; 100 μM) [%] | IC50 [3] [µM] | Minimum Active Conc. inhibiting microtube formation [4] [µM] | THP-1 cell proliferation in co-culture ([5]; 1:5 HT-29/THP-1, 24 h) | THP-1 cell proliferation in co-culture ([5]; 1:5 HT-29/THP-1, 48 h) | THP-1 cell proliferation in co-culture ([5]; 2:1 HT-29/THP-1, 24 h) | THP-1 cell proliferation in co-culture ([5]; 2:1 HT-29/THP-1, 48 h) | IC50 ([3]; 48 h) [µM]
1 | COc1ccc(CCCc2cccc(NC(=O)Oc3ccccc3)c2)cc1 [C.1] | 96 ± 1 | 30% | 70 ± 16 | 91 ± 7 | > 100 | 5 | 104 ± 8 | 97 ± 8 | 124 ± 6 | 113 ± 7 | –
2 | COc1ccc(CCCc2cccc(NC(=O)Nc3ccc(F)cc3)c2)cc1 [C.3] | 93 ± 2 | 30% | 70 ± 4 | 222 ± 69 | – | 50 | 87 ± 8 | 78 ± 5 | 113 ± 26 | 91 ± 18 | > 100
3 | COc1ccc(CCCc2cccc(NC(=O)Nc3ccc(OC)cc3)c2)cc1 [C.12] | 89 ± 2 | around 75% | 25 ± 5 | 96 ± 1 | – | 20 | 95 ± 18 | 90 ± 6 | 94 ± 5 | 90 ± 2 | > 100
4 | COc1ccc(CCCc2cccc(NC(=O)Nc3ccccc3OC)c2)cc1 [C.14] | 92 ± 1 | 50% | 45 ± 11 | 145 ± 8 | – | >100 | 99 ± 10 | 91 ± 6 | 110 ± 7 | 86 ± 3 | > 100
